Experimental data taken from paper PMC12368479, “Inhibition of the Clathrin Terminal Domain—Amphiphysin Protein–Protein Interaction. Probing the Pitstop 2 Aromatic Moiety” (Chemmedchem, 2025).
Like-named read-outs stand apart in the source and are kept apart here.

Columns and labels:
[1] = target: T1, clathrin heavy chain NTD (amino acids 1–364) – amphiphysin 1 B/C domain protein–protein interaction (NTD‐PPI) (Homo sapiens, UniProt Q00610); test: ELISA-based clathrin inhibitor binding assay (NTD-PPI); settings: ELISA; for IC50: average of duplicate measurements (n=2), read-out: NTD‐PPI IC50
T1 construct: GST‐tagged clathrin heavy chain NTD (amino acids 1–364); made in house
T1 sequence (Q00610 1-364): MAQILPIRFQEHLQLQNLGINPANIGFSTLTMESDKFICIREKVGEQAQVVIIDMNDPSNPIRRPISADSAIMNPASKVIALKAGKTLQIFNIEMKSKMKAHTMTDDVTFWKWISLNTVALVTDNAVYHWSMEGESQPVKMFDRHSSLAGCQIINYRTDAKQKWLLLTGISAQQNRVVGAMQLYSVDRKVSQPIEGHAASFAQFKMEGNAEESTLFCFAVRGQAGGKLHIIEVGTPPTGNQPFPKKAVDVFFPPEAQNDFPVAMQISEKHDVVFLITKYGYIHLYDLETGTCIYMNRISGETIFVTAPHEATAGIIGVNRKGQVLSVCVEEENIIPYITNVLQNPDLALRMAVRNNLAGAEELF
Method: The clathrin inhibitor assay was based inhibition of protein–protein interaction (PPI) between clathrin and amphiphysin as described in our previous report.^[ [45], [54] ^] Bacterially expressed recombinant purified His6‐tagged amphiphysin 1 B/C domain (which comprises both the clathrin and the AP‐2 binding sites, amino acids 250‐578^[ [55] ^]) in screening buffer (20 mM HEPES, pH 7.4, 50 mM NaCl, 1 mM DTT, 1 mM PMSF) was added to a 384 well ELISA plate (Corning Maxisorp 3700) and bound to the plastic for 1 h at room temperature. […] Following extensive washes (with 20 mM HEPES, pH 7.4, 50 mM NaCl, 0.05% Tween 20), chemical compounds diluted in DMSO (10 μL) were added and incubated together with bacterially expressed recombinant GST‐tagged clathrin heavy chain NTD (amino acids 1–364) for 1 h at room temperature in screening buffer. After 3 washes, horseradish peroxidase‐coupled anti‐GST antibodies were added in screening buffer and the plate incubated for 40 min at room temperature. Following additional washes, 50 μL TMB (3,3′,5,5′‐tetramethylbenzidine) (Pierce Biotechnology) chromogenic substrate of horseradish peroxidase was added, and the plate was incubated for 10 min before the reaction was terminated by adding 50 μL 1N sulfuric acid to produce a yellow colour. The amount of bound protein was determined by spectrophotometric measurement in a plate reader. Relative binding was calculated as a percentage of DMSO control.

[2] = target: T2, full length human Dynamin I (Homo sapiens, UniProt Q05193); test: Dynamin GTPase activity, Malachite Green phosphate detection assay; assay type: biochemical
T2 construct: full length human Dynamin I expressed in Sf21 insect cells; made in house; host or cells: Sf21 insect cells
T2 sequence (Q05193 1-864): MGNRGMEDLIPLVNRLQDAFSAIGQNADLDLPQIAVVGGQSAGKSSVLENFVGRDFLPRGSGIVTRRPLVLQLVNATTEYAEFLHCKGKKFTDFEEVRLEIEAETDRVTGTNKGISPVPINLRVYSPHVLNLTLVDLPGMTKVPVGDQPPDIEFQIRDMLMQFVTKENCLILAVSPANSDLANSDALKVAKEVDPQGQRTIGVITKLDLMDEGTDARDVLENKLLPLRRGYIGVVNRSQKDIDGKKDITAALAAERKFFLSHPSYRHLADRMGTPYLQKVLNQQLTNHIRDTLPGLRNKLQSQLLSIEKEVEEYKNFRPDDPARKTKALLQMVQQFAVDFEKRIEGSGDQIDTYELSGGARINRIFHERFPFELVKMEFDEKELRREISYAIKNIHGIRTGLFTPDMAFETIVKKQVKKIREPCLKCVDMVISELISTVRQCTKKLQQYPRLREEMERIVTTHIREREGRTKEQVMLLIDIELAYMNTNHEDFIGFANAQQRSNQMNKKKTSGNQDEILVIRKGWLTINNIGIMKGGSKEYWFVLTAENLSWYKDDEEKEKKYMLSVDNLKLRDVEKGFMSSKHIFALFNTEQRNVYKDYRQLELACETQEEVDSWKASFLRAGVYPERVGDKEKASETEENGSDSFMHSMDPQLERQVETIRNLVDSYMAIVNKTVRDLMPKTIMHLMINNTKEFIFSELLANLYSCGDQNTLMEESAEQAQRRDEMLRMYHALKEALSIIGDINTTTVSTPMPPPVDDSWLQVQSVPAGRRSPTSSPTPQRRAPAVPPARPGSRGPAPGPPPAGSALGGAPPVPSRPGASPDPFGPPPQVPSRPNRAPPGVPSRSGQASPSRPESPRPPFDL
Method: Dynamin GTPase activity was determined in vitro using the Malachite Green phosphate detection absorbance‐based assay within a 96‐well plate format as described previously. The enzyme source was full length human Dynamin I expressed in Sf21 insect cells and affinity‐purified on GST‐Amph2‐SH3 (rat Amphiphysin 2 (494–588)).^[ [56] ^]

[3] = Table 1, library 1, n = 1 unless noted (19: n = 2), '–' = not active at 150 μM, read-out: Dyn 1 IC50
[4] = Table 2, library 2, n = 3, triplicate, '–' = not active at 100 μM, read-out: Dyn 1 IC50

| SMILES | IC50 ([1]; Table 1, library 1) [µM] | IC50 [2, 3] [µM] | IC50 ([2]; values quoted in running text (section 2.2), read-out: Dynamin IC50) [µM] | fold less active (NTD‐PPI) than 25 and 27 ([1]; relative to 2,4‐dihydroxyphenyl 25 and 3,4‐dihydroxyphenyl 27) [fold] | IC50 ([1]; Table 2, library 2) [µM] | IC50 [2, 4] [µM] |
| --- | --- | --- | --- | --- | --- | --- |
| O=C1N=C(NS(=O)(=O)c2cccc3ccccc23)S/C1=C\c1ccccc1O [compound 8, (Z)‐N‐(5‐(2‐hydroxybenzylidene)‐4‐oxo‐4,5‐dihydrothiazol‐2‐yl)naphthalene‐1‐sulfonamide] | 2.1 | > 150 |  |  |  |  |
| N#Cc1cccc(/C=C2\SC(NS(=O)(=O)c3cccc4ccccc34)=NC2=O)c1 [compound 12, (Z)‐N‐(5‐(3‐cyanobenzylidene)‐4‐oxo‐4,5‐dihydrothiazol‐2‐yl)naphthalene‐1‐sulfonamide] | 5.7 | > 150 |  |  |  |  |
| O=C1N=C(NS(=O)(=O)c2cccc3ccccc23)SC1=Cc1cccc(-c2ccccc2)c1 [compound 17, N‐(5‐([1,1'‐biphenyl]‐3‐ylmethylene)‐4‐oxo‐4,5‐dihydrothiazol‐2‐yl)naphthalene‐1‐sulfonamide] | 4.02 | > 150 |  |  |  |  |
| CC(=O)Nc1ccc(/C=C2\SC(NS(=O)(=O)c3cccc4ccccc34)=NC2=O)cc1 [compound 19, (Z)‐N‐(4‐((2‐(naphthalene‐1‐sulfonamido)‐4‐oxothiazol‐5(4H)‐ylidene)methyl)phenyl)acetamide] | 3.5 | 93 ± 2.5 | 92.7 |  |  |  |
| CC(C)c1ccc(/C=C2\SC(NS(=O)(=O)c3cccc4ccccc34)=NC2=O)cc1 [compound 21, (Z)‐N‐(5‐(4‐isopropylbenzylidene)‐4‐oxo‐4,5‐dihydrothiazol‐2‐yl)naphthalene‐1‐sulfonamide] | 4.1 | > 150 |  |  |  |  |
| O=C1N=C(NS(=O)(=O)c2cccc3ccccc23)S/C1=C\c1cccc(O)c1O [compound 24, (Z)‐N‐(5‐(2,3‐dihydroxybenzylidene)‐4‐oxo‐4,5‐dihydrothiazol‐2‐yl)naphthalene‐1‐sulfonamide] |  |  |  | 3 | 3.9 | 85 |
| COc1ccc(/C=C2\SC(NS(=O)(=O)c3cccc4ccccc34)=NC2=O)c(OC)c1 [compound 30, (Z)‐N‐(5‐(2,4‐dimethoxybenzylidene)‐4‐oxo‐4,5‐dihydrothiazol‐2‐yl)naphthalene‐1‐sulfonamide] |  |  |  |  | 1 | > 100 |
| COc1ccc(/C=C2\SC(NS(=O)(=O)c3cccc4ccccc34)=NC2=O)cc1OC [compound 31, (Z)‐N‐(5‐(3,4‐dimethoxybenzylidene)‐4‐oxo‐4,5‐dihydrothiazol‐2‐yl)naphthalene‐1‐sulfonamide] |  |  |  |  | 2.2 | 91 |
| COc1cc(/C=C2\SC(NS(=O)(=O)c3cccc4ccccc34)=NC2=O)cc(OC)c1OC [compound 33, (Z)‐N‐(4‐oxo‐5‐(3,4,5‐trimethoxybenzylidene)‐4,5‐dihydrothiazol‐2‐yl)naphthalene‐1‐sulfonamide] |  |  |  |  | 14.1 | > 100 |
| O=C1N=C(NS(=O)(=O)c2cccc3ccccc23)S/C1=C\c1cccc(Cl)c1Cl [compound 34, (Z)‐N‐(5‐(2,3‐dichlorobenzylidene)‐4‐oxo‐4,5‐dihydrothiazol‐2‐yl)naphthalene‐1‐sulfonamide] |  |  |  |  | 26.1 | > 100 |
| O=C1N=C(NS(=O)(=O)c2cccc3ccccc23)S/C1=C\c1ccc(Cl)cc1Cl [compound 35, (Z)‐N‐(5‐(2,4‐dichlorobenzylidene)‐4‐oxo‐4,5‐dihydrothiazol‐2‐yl)naphthalene‐1‐sulfonamide] |  |  |  |  | 1.5 | 66.8 |
| O=C1N=C(NS(=O)(=O)c2cccc3ccccc23)S/C1=C\c1ccc(Cl)c(Cl)c1 [compound 36, (Z)‐N‐(5‐(3,4‐dichlorobenzylidene)‐4‐oxo‐4,5‐dihydrothiazol‐2‐yl)naphthalene‐1‐sulfonamide] |  |  |  |  | 4.1 | 95.1 ± 7.4 |
